Experimental data published in patent US20230348583A1, “TGFbeta1-BINDING IMMUNOGLOBULINS AND USE THEREOF” (SCHOLAR ROCK, INC., priority 2016, published 2023).

How the values were obtained:
[1] = tested on: rats and dogs; settings: Stauber et al. 2014; cited from earlier work
[2] = tested on: rats; settings: Frazier et al. 2007; cited from earlier work
[3] = tested on: female F344/NHsd rats; experiment: Rat toxicity study; settings: for Aortic root: Hemorrhage, Minimal / Aortic root: Infiltrate, mixed cell, Minimal / Atrium: Hemorrhage, Minimal / Atrium: Hyperplasia, endothelium, Minimal / Atrium: Infiltrate, mixed cell, Minimal / Atrium: Infiltrate, mixed cell, Slight / Coronary artery: Necrosis with inflammation, Slight / Heart valves: Valvulopathy, Minimal / Heart valves: Valvulopathy, Moderate / Heart valves: Valvulopathy, Slight / Myocardium: Degeneration/necrosis, Minimal / Myocardium: Degeneration/necrosis, Slight / Myocardium: Hemorrhage, Slight / Myocardium: Infiltrate, mixed cell, Slight: animals affected (n=5)
Experimental: Animal body weight was determined at days 1, 3, and 7 of the dosing phase. Animals were sacrificed at day 8 and necropsies performed.

[4] = tested on: human cancer patients; settings: in vivo; cited from earlier work
[5] = tested on: cynomolgus macaques; settings: cynomolgus monkey, in vivo; cited from earlier work

## Cc1cccc(-c2nn3c(c2-c2ccnc4ccc(C(N)=O)cc24)CCC3)n1 [LY2157299]
[1]
  Organ toxicities on chronic (≥3 months) administration: caused multiple organ toxicities

## O=C(NC1CCOCC1)c1ccc(-c2cc(-c3c[nH]nc3-c3ccccn3)ccn2)cc1 [GW788388]
[2]
  Bone toxicity in rats: induced physeal dysplasia

## c1ccc(-c2nn3c(c2-c2ccnc4cc(OCCN5CCOCC5)ccc24)CCC3)nc1 [LY2109761]
[3]; 200 mg/kg or 300 mg/kg
  Body weight during the dosing phase: decreased body weight
[3]; 200 mg/kg oral gavage once daily, n=5, day 7
  Animals found dead: Two
[3]; 300 mg/kg oral gavage once daily, all animals (n=5), days 3, 6, or 7
  Mortality: sacrificed in a moribund condition or found dead
[3]; LY2109761 200 mg/kg/day
  Heart, Absolute Weight: 112 percentage control mean value
  Heart, Body Weight Ratio: 132 percentage control mean value
  Heart, Brain Weight Ratio: 113 percentage control mean value
  Aortic root: Hemorrhage, Minimal: 1
  Aortic root: Infiltrate, mixed cell, Minimal: 1
  Atrium: Hemorrhage, Minimal: 1
  Atrium: Hyperplasia, endothelium, Minimal: 1
  Atrium: Infiltrate, mixed cell, Minimal: 2
  Atrium: Infiltrate, mixed cell, Slight: 0
  Coronary artery: Necrosis with inflammation, Slight: 0
  Heart valves: Valvulopathy, Minimal: 1
  Heart valves: Valvulopathy, Moderate: 1
  Heart valves: Valvulopathy, Slight: 3
  Myocardium: Degeneration/necrosis, Minimal: 0
  Myocardium: Degeneration/necrosis, Slight: 1
  Myocardium: Hemorrhage, Slight: 1
  Myocardium: Infiltrate, mixed cell, Slight: 0
[3]; LY2109761 300 mg/kg/day
  Aortic root: Hemorrhage, Minimal: 0
  Aortic root: Infiltrate, mixed cell, Minimal: 0
  Atrium: Hemorrhage, Minimal: 2
  Atrium: Hyperplasia, endothelium, Minimal: 3
  Atrium: Infiltrate, mixed cell, Minimal: 3
  Atrium: Infiltrate, mixed cell, Slight: 1
  Coronary artery: Necrosis with inflammation, Slight: 1
  Heart valves: Valvulopathy, Minimal: 2
  Heart valves: Valvulopathy, Moderate: 0
  Heart valves: Valvulopathy, Slight: 3
  Myocardium: Degeneration/necrosis, Minimal: 1
  Myocardium: Degeneration/necrosis, Slight: 1
  Myocardium: Hemorrhage, Slight: 0
  Myocardium: Infiltrate, mixed cell, Slight: 1
[3]; each of 200 mg/kg and 300 mg/kg groups, n=5
  Animals with abnormally-shaped sternum: four
[3]; one animal at 300 mg/kg found dead on Day 3, with enlarged thymus (edema)
  Clear fluid in the thoracic cavity: 2.5 mL
[3]; ≥200 mg/kg
  Heart weight: Increased heart weights
  Microscopic heart valve findings: exhibited heart valve findings (i.e., valvulopathy)

## Fresolimumab: a pan TGFβ antibody capable of neutralizing all human isoforms of TGFβ
[4]
  Most notable adverse reaction in clinical trials: induction of cutaneous keratoacanthomas and/or squamous cell carcinomas
[5]
  Toxicity after multiple administrations: induce an epithelial hyperplasia of the gingiva, bladder, and of the nasal turbinate epithelium
